Laboratory results taken from ChEMBL document CHEMBL1130852, “In vitro evaluation and crystallographic analysis of a new class of selective, non-amide-based thrombin inhibitors” (Bioorg Med Chem Lett, 1998).
Several values for one entry are separate records, joined by “and”; a condition that tells them apart may be missing. Equal entries are not always repeated.

Tests used:
[1] = Compound was tested in vitro for its ability to inhibit serine protease elastase using suc-Ala-Ala-Pro-Val-p-nitroanilide as substrate
[2] = biological target: Coagulation factor X (Homo sapiens, UniProt P00742); test: Compound was tested in vitro for its ability to inhibit serine protease factor Xa using benzoyl-Ile-Glu-Gly-Arg-p-nitroanilide as substrate
Sequence of Coagulation factor X (P00742 41-179 limits assumed): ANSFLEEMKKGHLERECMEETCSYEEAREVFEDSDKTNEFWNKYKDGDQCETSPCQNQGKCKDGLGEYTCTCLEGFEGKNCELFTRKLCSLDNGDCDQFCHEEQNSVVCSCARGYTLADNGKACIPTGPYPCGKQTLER
Sequence of Coagulation factor X (P00742 235-488 limits assumed): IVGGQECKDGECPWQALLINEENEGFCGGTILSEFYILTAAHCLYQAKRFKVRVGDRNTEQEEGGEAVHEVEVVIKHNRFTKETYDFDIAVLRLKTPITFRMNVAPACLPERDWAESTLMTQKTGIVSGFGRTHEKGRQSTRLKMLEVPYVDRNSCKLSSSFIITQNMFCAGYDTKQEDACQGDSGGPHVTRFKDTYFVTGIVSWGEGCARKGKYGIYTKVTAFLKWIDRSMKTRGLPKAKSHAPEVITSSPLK

[3] = biological target: Plasminogen (Homo sapiens, UniProt P00747); test: Compound was tested in vitro for its ability to inhibit serine protease plasmin using tosyl-Gly-Pro-Lys-p-nitroanilide as substrate
Sequence of Plasminogen (P00747 97-580 limits assumed): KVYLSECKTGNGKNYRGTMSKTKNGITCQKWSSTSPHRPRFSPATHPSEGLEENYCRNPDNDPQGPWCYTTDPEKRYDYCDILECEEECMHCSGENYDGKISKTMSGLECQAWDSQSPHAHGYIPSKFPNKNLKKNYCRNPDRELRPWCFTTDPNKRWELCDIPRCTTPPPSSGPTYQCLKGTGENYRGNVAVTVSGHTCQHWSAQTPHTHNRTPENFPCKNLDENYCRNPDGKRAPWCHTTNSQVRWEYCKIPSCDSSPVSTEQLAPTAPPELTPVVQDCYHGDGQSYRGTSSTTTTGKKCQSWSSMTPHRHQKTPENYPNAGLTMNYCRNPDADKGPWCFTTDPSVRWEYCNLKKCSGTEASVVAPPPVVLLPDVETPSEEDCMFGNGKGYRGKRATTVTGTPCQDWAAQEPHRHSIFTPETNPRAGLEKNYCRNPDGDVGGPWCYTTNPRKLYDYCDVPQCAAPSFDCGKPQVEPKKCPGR
Sequence of Plasminogen (P00747 581-810 limits assumed): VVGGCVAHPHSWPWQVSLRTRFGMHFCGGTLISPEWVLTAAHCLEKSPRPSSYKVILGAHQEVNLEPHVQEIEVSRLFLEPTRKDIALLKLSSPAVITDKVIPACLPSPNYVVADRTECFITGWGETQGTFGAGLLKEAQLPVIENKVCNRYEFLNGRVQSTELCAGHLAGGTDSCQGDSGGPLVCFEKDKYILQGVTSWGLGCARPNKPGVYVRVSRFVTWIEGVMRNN

[4] = biological target: Urokinase-type plasminogen activator (Homo sapiens, UniProt P00749); test: (§1) Compound was tested in vitro for its ability to inhibit serine protease urokinase using carbobenzyloxy-Phe-Val-Arg-p-nitroanilide as substrate
[5] = biological target: Prothrombin (Homo sapiens, UniProt P00734); test: Compound was tested in vitro for its ability to inhibit serine protease thrombin using […] as substrate
[6] = system: CC(C)[C@H](NC(=O)[C@H](Cc1ccccc1)NC(=O)OCc1ccccc1)C(=O)N[C@@H](CCCN=C(N)N)C(=O)Nc1ccc([N+](=O)[O-])cc1; test: as §1
[7] = compound: CC(C)[C@H](NC(=O)[C@H](Cc1ccccc1)NC(=O)c1ccccc1)C(=O)N[C@@H](CCCN=C(N)N)C(=O)Nc1ccc([N+](=O)[O-])cc1; test: Compound was tested in vitro for its ability to inhibit serine protease trypsin using benzoyl-Phe-Val-Arg-p-nitroanilide as substrate; conditions: Bos taurus
[8] = compound: C[C@H](NC(=O)CCC(=O)O)C(=O)N[C@@H](C)C(=O)N1CCC[C@H]1C(=O)N[C@@H](Cc1ccccc1)C(=O)Nc1ccc([N+](=O)[O-])cc1; test: Compound was tested in vitro for its ability to inhibit serine protease Chymotrypsinogen using suc-Ala-Ala-Pro-Phe-p-nitroanilide as substrate

## Cc1cc(OCC2CCCN(C(=N)N)C2)cc(OS(=O)(=O)c2ccccc2Cl)c1 (stereo unspecified)
[1]
  Ki: > 200 µM
[2]
  Ki: 29 µM
[3]
  Ki: > 200 µM
[4]
  Ki: > 200 µM
[5]
  Ki: 0.32 µM

## Cc1cc(OCC2CCN(C(=N)N)CC2)cc(OS(=O)(=O)c2ccccc2Cl)c1
[1]
  Ki: > 200 µM
[2]
  Ki: 80 µM
[3]
  Ki: > 200 µM
[4]
  Ki: > 200 µM
[5]
  Ki: 0.0046 µM

## Cc1cc(OCCCCN=C(N)N)cc(OS(=O)(=O)c2ccccc2Cl)c1
[1]
  Ki: > 200 µM
[2]
  Ki: 110 µM
[3]
  Ki: > 200 µM
[4]
  Ki: > 200 µM

## Cc1cc(OCCCCCN=C(N)N)cc(OS(=O)(=O)c2ccccc2Cl)c1
[1]
  Ki: > 200 µM
[2]
  Ki: 120 µM
[3]
  Ki: > 200 µM
[4]
  Ki: > 200 µM
[5]
  Ki: 0.26 µM

## Cc1cc(OCCN(C)c2ccncc2)cc(OS(=O)(=O)c2ccccc2Cl)c1
[1]
  Ki: > 200 µM
[2]
  Ki: 160 µM
[3]
  Ki: > 200 µM
[4]
  Ki: > 200 µM

## Urokinase-type plasminogen activator (Homo sapiens) (from UniProt P00749)
[6]
  Km: 190 µM and 170 µM

## Cc1cc(OCCCN=C(N)N)cc(OS(=O)(=O)c2ccccc2Cl)c1
[1]
  Ki: > 200 µM
[2]
  Ki: > 200 µM
[3]
  Ki: > 200 µM
[4]
  Ki: > 200 µM
[5]
  Ki: 0.033 µM

B1: Serine protease 1 (Bos taurus), P00760 (protein)
chain: MKTFIFLALLGAAVAFPVDDDDKIVGGYTCGANTVPYQVSLNSGYHFCGGSLINSQWVVSAAHCYKSGIQVRLGEDNINVVEGNEQFISASKSIVHPSYNSNTLNNDIMLIKLKSAASLNSRVASISLPTSCASAGTQCLISGWGNTKSSGTSYPDVLKCLKAPILSDSSCKSAYPGQITSNMFCAGYLEGGKDSCQGDSGGPVVCSGKLQGIVSWGSGCAQKNKPGVYTKVCNYVSWIKQTIASN
[7]
  Km: 160 µM and 100 µM

B2: Chymotrypsin-C (Homo sapiens), Q99895 (protein)
chain: MLGITVLAALLACASSCGVPSFPPNLSARVVGGEDARPHSWPWQISLQYLKNDTWRHTCGGTLIASNFVLTAAHCISNTRTYRVAVGKNNLEVEDEEGSLFVGVDTIHVHKRWNALLLRNDIALIKLAEHVELSDTIQVACLPEKDSLLPKDYPCYVTGWGRLWTNGPIADKLQQGLQPVVDHATCSRIDWWGFRVKKTMVCAGGDGVISACNGDSGGPLNCQLENGSWEVFGIVSFGSRRGCNTRKKPVVYTRVSAYIDWINEKMQL
[8]
  Km: 60 µM and 100 µM
